#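 The compound was tested at five concentrations on cells cultured in 96-well plates, with a 48-hour exposure period. The concentration for full growth arrest is given as TGI.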
# Tests used:
# Assay in all cases: NCI-60 cell line screen, 48 h
# 786-0 renal = system: 786-0 renal
# A549 NSCLC = system: A549 NSCLC
# ACHN renal = system: ACHN renal
# CAKI-1 renal = system: CAKI-1 renal
# CCRF-CEM leukemia = system: CCRF-CEM leukemia
# COLO 205 colon = system: COLO 205 colon
# EKVX NSCLC = system: EKVX NSCLC
# HCT-116 colon = system: HCT-116 colon
# HCT-15 colon = system: HCT-15 colon
# HL-60(TB) leukemia = system: HL-60(TB) leukemia
# HOP-62 NSCLC = system: HOP-62 NSCLC
# HOP-92 NSCLC = system: HOP-92 NSCLC
# HS 578T breast = system: HS 578T breast
# HT29 colon = system: HT29 colon
# IGROV1 ovarian = system: IGROV1 ovarian
# K-562 leukemia = system: K-562 leukemia
# KM12 colon = system: KM12 colon
# LOX IMVI melanoma = system: LOX IMVI melanoma
# M14 melanoma = system: M14 melanoma
# MALME-3M melanoma = system: MALME-3M melanoma
# MCF7 breast = system: MCF7 breast
# MDA-MB-435 = system: MDA-MB-435
# MDA-N = system: MDA-N
# MOLT-4 leukemia = system: MOLT-4 leukemia
# NCI-H226 lung = system: NCI-H226 lung
# NCI-H23 lung = system: NCI-H23 lung
# NCI-H460 lung = system: NCI-H460 lung
# NCI-H522 lung = system: NCI-H522 lung
# NCI/ADR-RES ovarian = system: NCI/ADR-RES ovarian
# OVCAR-3 ovarian = system: OVCAR-3 ovarian
# OVCAR-4 ovarian = system: OVCAR-4 ovarian
# OVCAR-5 ovarian = system: OVCAR-5 ovarian
# OVCAR-8 ovarian = system: OVCAR-8 ovarian
# PC-3 prostate = system: PC-3 prostate
# RPMI-8226 leukemia = system: RPMI-8226 leukemia
# SF-268 CNS = system: SF-268 CNS
# SF-295 CNS = system: SF-295 CNS
# SK-MEL-2 melanoma = system: SK-MEL-2 melanoma
# SK-MEL-28 melanoma = system: SK-MEL-28 melanoma
# SK-MEL-5 melanoma = system: SK-MEL-5 melanoma
# SK-OV-3 ovarian = system: SK-OV-3 ovarian
# SN12C renal = system: SN12C renal
# SNB-19 CNS = system: SNB-19 CNS
# SNB-75 CNS = system: SNB-75 CNS
# SR leukemia = system: SR leukemia
# SW-620 colon = system: SW-620 colon
# T-47D breast = system: T-47D breast
# TK-10 renal = system: TK-10 renal
# U251 CNS = system: U251 CNS
# UACC-257 melanoma = system: UACC-257 melanoma
# UACC-62 melanoma = system: UACC-62 melanoma
# UO-31 renal = system: UO-31 renal
# A498 renal = system: A498 renal
# DU-145 prostate = system: DU-145 prostate
# MDA-MB-231 breast = system: MDA-MB-231 breast
# HCC-2998 colon = system: HCC-2998 colon
# RXF 393 renal = system: RXF 393 renal
# SF-539 CNS = system: SF-539 CNS
structure (smiles),measurement,setting,value
N#CCSc1c(-c2ccccc2)c(=O)n(-c2ccccc2)c(=S)n1-c1ccccc1,TGI,786-0 renal,> 100 µM
same,TGI,A549 NSCLC,> 100 µM
same,TGI,ACHN renal,> 100 µM
same,TGI,CAKI-1 renal,> 100 µM
same,TGI,CCRF-CEM leukemia,> 100 µM
same,TGI,COLO 205 colon,> 100 µM
same,TGI,EKVX NSCLC,> 100 µM
same,TGI,HCT-116 colon,> 100 µM
same,TGI,HCT-15 colon,> 100 µM
same,TGI,HL-60(TB) leukemia,> 100 µM
same,TGI,HOP-62 NSCLC,> 100 µM
same,TGI,HOP-92 NSCLC,> 100 µM
same,TGI,HS 578T breast,> 100 µM
same,TGI,HT29 colon,> 100 µM
same,TGI,IGROV1 ovarian,> 100 µM
same,TGI,K-562 leukemia,> 100 µM
same,TGI,KM12 colon,> 100 µM
same,TGI,LOX IMVI melanoma,> 100 µM
same,TGI,M14 melanoma,> 100 µM
same,TGI,MALME-3M melanoma,> 100 µM
same,TGI,MCF7 breast,> 100 µM
same,TGI,MDA-MB-435,> 100 µM
same,TGI,MDA-N,> 100 µM
same,TGI,MOLT-4 leukemia,> 100 µM
same,TGI,NCI-H226 lung,> 100 µM
same,TGI,NCI-H23 lung,> 100 µM
same,TGI,NCI-H460 lung,> 100 µM
same,TGI,NCI-H522 lung,> 100 µM
same,TGI,NCI/ADR-RES ovarian,> 100 µM
same,TGI,OVCAR-3 ovarian,> 100 µM
same,TGI,OVCAR-4 ovarian,> 100 µM
same,TGI,OVCAR-5 ovarian,> 100 µM
same,TGI,OVCAR-8 ovarian,> 100 µM
same,TGI,PC-3 prostate,> 100 µM
same,TGI,RPMI-8226 leukemia,> 100 µM
same,TGI,SF-268 CNS,> 100 µM
same,TGI,SF-295 CNS,> 100 µM
same,TGI,SK-MEL-2 melanoma,> 100 µM
same,TGI,SK-MEL-28 melanoma,> 100 µM
same,TGI,SK-MEL-5 melanoma,> 100 µM
same,TGI,SK-OV-3 ovarian,> 100 µM
same,TGI,SN12C renal,> 100 µM
same,TGI,SNB-19 CNS,> 100 µM
same,TGI,SNB-75 CNS,> 100 µM
same,TGI,SR leukemia,> 100 µM
same,TGI,SW-620 colon,> 100 µM
same,TGI,T-47D breast,> 100 µM
same,TGI,TK-10 renal,> 100 µM
same,TGI,U251 CNS,> 100 µM
same,TGI,UACC-257 melanoma,> 100 µM
same,TGI,UACC-62 melanoma,> 100 µM
same,TGI,UO-31 renal,> 100 µM
NC(=O)CCC(NC(=O)c1cccc2c(=O)c3ccccc3[nH]c12)C(=O)O (stereo not given),TGI,786-0 renal,> 100 µM
same,TGI,A498 renal,> 100 µM
same,TGI,A549 NSCLC,> 100 µM
same,TGI,ACHN renal,> 100 µM
same,TGI,COLO 205 colon,> 100 µM
same,TGI,DU-145 prostate,> 100 µM
same,TGI,EKVX NSCLC,> 100 µM
same,TGI,HCT-116 colon,> 100 µM
same,TGI,HCT-15 colon,> 100 µM
same,TGI,HL-60(TB) leukemia,> 100 µM
same,TGI,HOP-62 NSCLC,> 100 µM
same,TGI,HOP-92 NSCLC,> 100 µM
same,TGI,HS 578T breast,> 100 µM
same,TGI,HT29 colon,> 100 µM
same,TGI,IGROV1 ovarian,> 100 µM
same,TGI,K-562 leukemia,> 100 µM
same,TGI,KM12 colon,> 100 µM
same,TGI,LOX IMVI melanoma,> 100 µM
same,TGI,M14 melanoma,> 100 µM
same,TGI,MALME-3M melanoma,> 100 µM
same,TGI,MCF7 breast,> 100 µM
same,TGI,MDA-MB-231 breast,> 100 µM
same,TGI,MDA-MB-435,> 100 µM
same,TGI,MDA-N,> 100 µM
same,TGI,MOLT-4 leukemia,> 100 µM
same,TGI,NCI-H226 lung,> 100 µM
same,TGI,NCI-H23 lung,> 100 µM
same,TGI,NCI-H522 lung,> 100 µM
same,TGI,NCI/ADR-RES ovarian,> 100 µM
same,TGI,OVCAR-3 ovarian,> 100 µM
same,TGI,OVCAR-4 ovarian,> 100 µM
same,TGI,OVCAR-5 ovarian,> 100 µM
same,TGI,OVCAR-8 ovarian,> 100 µM
same,TGI,PC-3 prostate,> 100 µM
same,TGI,RPMI-8226 leukemia,> 100 µM
same,TGI,SF-268 CNS,> 100 µM
same,TGI,SF-295 CNS,> 100 µM
same,TGI,SK-MEL-2 melanoma,> 100 µM
same,TGI,SK-MEL-28 melanoma,> 100 µM
same,TGI,SK-MEL-5 melanoma,> 100 µM
same,TGI,SK-OV-3 ovarian,> 100 µM
same,TGI,SN12C renal,> 100 µM
same,TGI,SNB-19 CNS,> 100 µM
same,TGI,SNB-75 CNS,> 100 µM
same,TGI,SR leukemia,> 100 µM
same,TGI,SW-620 colon,> 100 µM
same,TGI,TK-10 renal,> 100 µM
same,TGI,U251 CNS,> 100 µM
same,TGI,UACC-62 melanoma,> 100 µM
same,TGI,UO-31 renal,> 100 µM
CCNc1cc2c3c(c1)CCCN3CCC2,TGI,786-0 renal,26 µM
same,TGI,A498 renal,65.3 µM
same,TGI,A549 NSCLC,35.9 µM
same,TGI,ACHN renal,63.1 µM
same,TGI,CAKI-1 renal,> 100 µM
same,TGI,CCRF-CEM leukemia,6.43 µM
same,TGI,COLO 205 colon,24.5 µM
same,TGI,DU-145 prostate,> 100 µM
same,TGI,EKVX NSCLC,48.4 µM
same,TGI,HCC-2998 colon,70.8 µM
same,TGI,HCT-116 colon,19.2 µM
same,TGI,HCT-15 colon,40.5 µM
same,TGI,HL-60(TB) leukemia,35 µM
same,TGI,HOP-62 NSCLC,28.4 µM
same,TGI,HOP-92 NSCLC,44.4 µM
same,TGI,HS 578T breast,78.5 µM
same,TGI,HT29 colon,21.6 µM
same,TGI,IGROV1 ovarian,31.5 µM
same,TGI,K-562 leukemia,28.3 µM
same,TGI,KM12 colon,29.9 µM
same,TGI,LOX IMVI melanoma,13.5 µM
same,TGI,M14 melanoma,63.7 µM
same,TGI,MALME-3M melanoma,44.6 µM
same,TGI,MCF7 breast,62.9 µM
same,TGI,MDA-MB-231 breast,22.4 µM
same,TGI,MDA-MB-435,11.2 µM
same,TGI,MDA-N,10.9 µM
same,TGI,MOLT-4 leukemia,50.6 µM
same,TGI,NCI-H226 lung,41.9 µM
same,TGI,NCI-H23 lung,21.9 µM
same,TGI,NCI-H460 lung,29.8 µM
same,TGI,NCI-H522 lung,62.7 µM
same,TGI,NCI/ADR-RES ovarian,52.2 µM
same,TGI,OVCAR-3 ovarian,19.1 µM
same,TGI,OVCAR-4 ovarian,32.3 µM
same,TGI,OVCAR-5 ovarian,45.1 µM
same,TGI,OVCAR-8 ovarian,56.4 µM
same,TGI,PC-3 prostate,35.6 µM
same,TGI,RPMI-8226 leukemia,57.1 µM
same,TGI,RXF 393 renal,> 100 µM
same,TGI,SF-268 CNS,33.3 µM
same,TGI,SF-295 CNS,32.3 µM
same,TGI,SF-539 CNS,40.5 µM
same,TGI,SK-MEL-2 melanoma,30 µM
same,TGI,SK-MEL-28 melanoma,87.5 µM
same,TGI,SK-MEL-5 melanoma,28.2 µM
same,TGI,SK-OV-3 ovarian,37.3 µM
same,TGI,SN12C renal,8.63 µM
same,TGI,SNB-19 CNS,33 µM
same,TGI,SNB-75 CNS,32.7 µM
same,TGI,SR leukemia,27.4 µM
same,TGI,SW-620 colon,55.2 µM
same,TGI,T-47D breast,67.9 µM
same,TGI,TK-10 renal,> 100 µM
same,TGI,U251 CNS,24.7 µM
same,TGI,UACC-257 melanoma,49.5 µM
same,TGI,UACC-62 melanoma,41 µM
same,TGI,UO-31 renal,> 100 µM
COc1ccc(S(=O)(=O)Nc2ccc(-c3csc(N4C(=O)/C(=C/c5ccccc5)N=C4c4ccccc4)n3)cc2)cc1Cl,TGI,786-0 renal,> 100 µM
same,TGI,A498 renal,48.7 µM
same,TGI,A549 NSCLC,> 100 µM
same,TGI,ACHN renal,> 100 µM
same,TGI,CAKI-1 renal,> 100 µM
same,TGI,CCRF-CEM leukemia,> 100 µM
same,TGI,COLO 205 colon,> 100 µM
same,TGI,DU-145 prostate,86.8 µM
same,TGI,HCT-116 colon,> 100 µM
same,TGI,HCT-15 colon,49.5 µM
same,TGI,HL-60(TB) leukemia,87.4 µM
same,TGI,HOP-62 NSCLC,> 100 µM
same,TGI,HOP-92 NSCLC,69.7 µM
same,TGI,HS 578T breast,> 100 µM
same,TGI,HT29 colon,> 100 µM
same,TGI,IGROV1 ovarian,> 100 µM
same,TGI,K-562 leukemia,> 100 µM
same,TGI,KM12 colon,> 100 µM
same,TGI,LOX IMVI melanoma,> 100 µM
same,TGI,M14 melanoma,71.9 µM
same,TGI,MALME-3M melanoma,> 100 µM
same,TGI,MCF7 breast,> 100 µM
same,TGI,MDA-MB-231 breast,46.2 µM
same,TGI,MDA-MB-435,> 100 µM
same,TGI,MDA-N,> 100 µM
same,TGI,MOLT-4 leukemia,> 100 µM
same,TGI,NCI-H226 lung,> 100 µM
same,TGI,NCI-H23 lung,54.8 µM
same,TGI,NCI-H460 lung,> 100 µM
same,TGI,NCI-H522 lung,> 100 µM
same,TGI,NCI/ADR-RES ovarian,> 100 µM
same,TGI,OVCAR-3 ovarian,> 100 µM
same,TGI,OVCAR-4 ovarian,99.4 µM
same,TGI,OVCAR-5 ovarian,> 100 µM
same,TGI,OVCAR-8 ovarian,> 100 µM
same,TGI,PC-3 prostate,> 100 µM
same,TGI,RXF 393 renal,73.3 µM
same,TGI,SF-268 CNS,> 100 µM
same,TGI,SF-295 CNS,> 100 µM
same,TGI,SF-539 CNS,> 100 µM
same,TGI,SK-MEL-2 melanoma,> 100 µM
same,TGI,SK-MEL-28 melanoma,> 100 µM
same,TGI,SK-MEL-5 melanoma,> 100 µM
same,TGI,SK-OV-3 ovarian,> 100 µM
same,TGI,SN12C renal,> 100 µM
same,TGI,SNB-19 CNS,> 100 µM
same,TGI,SNB-75 CNS,> 100 µM
same,TGI,SR leukemia,> 100 µM
same,TGI,SW-620 colon,> 100 µM
same,TGI,T-47D breast,61.9 µM
same,TGI,TK-10 renal,> 100 µM
same,TGI,U251 CNS,78 µM
same,TGI,UACC-257 melanoma,> 100 µM
same,TGI,UACC-62 melanoma,> 100 µM
same,TGI,UO-31 renal,34.1 µM

# — PubChem BioAssay (NCI)
